For orientation: IC50 means the concentration at which inhibition is half-maximal. Usually EC50 stands for the midpoint of the concentration-response curve.

For one test, the target named is CDK4/cyclin D1 (Homo sapiens (Human), UniProt P11802). Briefly: CDK4 Caliper Mobility Shift assay. The format is biochemical. On the procedure: (§1) A Caliper Mobility Shift assay was used to determine the inhibitory activities of a compound against CDK4/cyclin D1 and CDK6/cyclin D1 in their respective kinase buffers (CDK4: 20 mM HEPES, pH 7.5, and 0.01% Triton X-100; CDK6: 50 mM HEPES, pH 7.5, and 0.0015% BRIJ-35). The CDK4/cyclin D1 and CDK6/cyclin D1 were obtained from PROQINASE and CARNA, respectively. A FAM-labeled peptide was obtained from GL.
(§2) The compound at predetermined concentrations was pre-incubated with CDK4/cyclin D1 or CDK6/cyclin D1 in a 384-well microplate at room temperature for 10 min. The FAM-labeled peptide and ATP were subsequently added to initiate the kinase reactions. The final enzyme concentrations were 15 nM for CDK4 and 7.5 nM for CDK6. The final ATP concentrations were […] for CDK4 and […] for CDK6. The microplate was allowed to incubate at 28° C. The kinase reactions were stopped by adding a stop buffer (100 mM HEPES, pH 7.5, 0.012% BRIJ-35, 0.2% Coating Reagent 3 (Caliper Life Sciences), and […]). Conversion data were recorded and utilized to calculate the percent inhibition values for each compound and an IC50 value was then determined. The results are summarized in Table 1, where the symbol “***” represents a value no greater than 200 nM, the symbol “**” represents a value greater than 200 nM but no greater than 500 nM, and the symbol “*” represents a value greater than 500 nM.

Another test concerns the target CDK6/cyclin D1 (Homo sapiens (Human), UniProt Q00534). Briefly: CDK6 Caliper Mobility Shift assay. The format is biochemical. On the procedure: as §1, §2
In test [1] the test system is MCF-7 human breast cancer cells. Briefly: CELLTITER-GLO luminescent cell viability assay. The format is cell-based. Conditions: MCF7, 192 h, MCF-7 cells, 8 days, read-out: EC50 (Effect on Cell Viability). How it is done:
A CELLTITER-GLO luminescent cell viability assay was carried out using MCF-7 human breast cancer cells under the normal growth condition. The MCF-7 human breast cancer cells were grown at 37° C. in a 5% CO2 humidified incubator in EMEM, supplemented 10% FBS, 0.01 mg/mL bovine insulin. The cells were seeded at a 3,000 cells/well in a 96-well tissue culture plate. The cells were allowed to adhere overnight in the incubator. A compound (5 μL) in a medium at a predetermined concentration. After the cells was incubated at 37° C. for 8 days, a CELLTITER-GLO detection solution (100 μL) was added. The cells were mixed on an orbital shaker for 5 min and then incubated for additional 10 min. The plate was read with an ENVISION reader. The results are summarized in Table 2, where the symbol “+++” represents a value no greater than 1 μM, the symbol “++” represents a value greater than 1 μM but no greater than 10 μM, and the symbol “+” represents a value greater than 10 μM.
In general terms: In ATP-based viability assays light output follows the ATP content of the culture.

CDK4/cyclin D1, sequence (P11802 whole entry): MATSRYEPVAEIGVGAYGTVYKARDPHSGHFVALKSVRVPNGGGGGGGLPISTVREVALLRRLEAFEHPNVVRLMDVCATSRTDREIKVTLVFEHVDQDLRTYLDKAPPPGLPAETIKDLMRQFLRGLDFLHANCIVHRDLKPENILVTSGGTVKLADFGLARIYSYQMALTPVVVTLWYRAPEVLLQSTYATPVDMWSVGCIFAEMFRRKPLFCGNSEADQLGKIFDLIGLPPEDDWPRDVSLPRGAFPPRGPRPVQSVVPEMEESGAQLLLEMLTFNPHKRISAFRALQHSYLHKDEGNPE
CDK4/cyclin D1, sequence (P24385 whole entry partner): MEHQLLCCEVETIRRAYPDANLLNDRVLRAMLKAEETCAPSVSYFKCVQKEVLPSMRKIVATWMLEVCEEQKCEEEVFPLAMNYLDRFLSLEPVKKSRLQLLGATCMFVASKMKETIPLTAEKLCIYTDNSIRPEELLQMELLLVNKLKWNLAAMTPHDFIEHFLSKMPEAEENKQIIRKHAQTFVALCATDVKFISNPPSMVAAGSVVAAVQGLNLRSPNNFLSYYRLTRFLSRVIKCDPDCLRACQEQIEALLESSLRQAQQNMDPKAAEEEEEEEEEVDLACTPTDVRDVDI
CDK6/cyclin D1, sequence (Q00534 whole entry): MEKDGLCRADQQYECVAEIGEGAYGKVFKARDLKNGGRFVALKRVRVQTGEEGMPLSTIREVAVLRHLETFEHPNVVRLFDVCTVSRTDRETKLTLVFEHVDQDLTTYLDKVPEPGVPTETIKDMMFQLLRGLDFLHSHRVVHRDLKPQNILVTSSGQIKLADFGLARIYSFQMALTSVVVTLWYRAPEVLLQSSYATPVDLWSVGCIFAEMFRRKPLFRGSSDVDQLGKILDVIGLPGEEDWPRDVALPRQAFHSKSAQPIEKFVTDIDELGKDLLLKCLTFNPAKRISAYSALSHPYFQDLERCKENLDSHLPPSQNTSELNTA
CDK6/cyclin D1, sequence (P24385 whole entry partner): as the sequence (P24385 whole entry partner) above

For `CC(=O)c1c(C)c2cnc(Nc3ccc(N4CCN(S(=O)(=O)n5ccnc5N)CC4)cn3)nc2n(C2CCCC2)c1=O` [Compound A57, 6-Acetyl-2-((5-(4-((2-amino-1H-imidazol-1-yl)sulfonyl)piperazin-1-yl)pyridin-2-yl)amino)-8-cyclopentyl-5-methylpyrido[2,3-d]pyrimidin-7(8H)-one], the IC50 at CDK4/cyclin D1 and on CDK6/cyclin D1 was at most 0.2 µM each time.

On to `CC(=O)c1c(C)c2cnc(Nc3ccc(N4CCN(S(=O)(=O)C(C)C)CC4)cn3)nc2n(C2CCCC2)c1=O` [Compound C1, 6-acetyl-8-cyclopentyl-2-[[5-(4-isopropylsulfonylpiperazin-1-yl)-2-pyridyl]-amino]-5-methylpyrido[2,3-d]pyrimidin-7-one], for which the IC50 on CDK4/cyclin D1 and on CDK6/cyclin D1 was at most 0.2 µM in each case.

`CC(=O)c1c(C)c2cnc(Nc3ccc(N4CCN(S(=O)(=O)N5CCCC[C@@H]5CO)CC4)cn3)nc2n(C2CCCC2)c1=O` [Compound A7, (R)-6-acetyl-8-cyclopentyl-2-((5-(4-((2-(hydroxymethyl)piperidin-1-yl)sulfonyl)-piperazin-1-yl)pyridin-2-yl)amino)-5-methylpyrido[2,3-d]pyrimidin-7(8H)-one]: the IC50 on CDK4/cyclin D1 and on CDK6/cyclin D1 was at most 0.2 µM in each case. In addition, the EC50 in test [1] was 1 to 10 µM.

On to `CNS(=O)(=O)N1CCN(c2ccc(Nc3ncc4c(C)c(C(C)=O)c(=O)n(C5CCCC5)c4n3)nc2)CC1` [Compound A46, 4-(6-((6-Acetyl-8-cyclopentyl-5-methyl-7-oxo-7,8-dihydropyrido[2,3-d]-pyrimidin-2-yl)amino)pyridin-3-yl)-N-methylpiperazine-1-sulfonamide], for which the IC50 on CDK4/cyclin D1 is at most 0.2 µM; on CDK6/cyclin D1, 0.2 to 0.5 µM.

Consider `CC(=O)c1c(C)c2cnc(Nc3ccc(N4CCN(S(=O)(=O)NC(=O)OCCNC(=O)[C@@H](C)N)CC4)cn3)nc2n(C2CCCC2)c1=O` [Compound A16, (R)-2-(2-Aminopropanamido)ethyl ((4-(6-((6-acetyl-8-cyclopentyl-5-methyl-7-oxo-7,8-dihydropyrido[2,3-d]pyrimidin-2-yl)amino)pyridin-3-yl)piperazin-1-yl)sulfonyl)-carbamate], for which the IC50 on CDK4/cyclin D1 and on CDK6/cyclin D1 was at most 0.2 µM throughout.

With `CC(=O)c1c(C)c2cnc(Nc3ccc(N4CCN(S(=O)(=O)NC(=O)C5CC5)CC4)cn3)nc2n(C2CCCC2)c1=O` [Compound A38, N-((4-(6-((6-Acetyl-8-cyclopentyl-5-methyl-7-oxo-7,8-dihydropyrido[2,3-d]-pyrimidin-2-yl)amino)pyridin-3-yl)piperazin-1-yl)sulfonyl)cyclopropanecarboxamide], the IC50 on CDK4/cyclin D1 and at CDK6/cyclin D1 was at most 0.2 µM in each case.

For the compound `CC(=O)c1c(C)c2cnc(Nc3ccc(N4CCN(S(N)(=O)=O)CC4)cn3)nc2n(C2CCCC2)c1=O` [Compound A5, 4-(6-((6-acetyl-8-cyclopentyl-5-methyl-7-oxo-7,8-dihydropyrido[2,3-d]pyrimidin-2-yl)amino)pyridin-3-yl)-piperazine-1-sulfonamide], the values for the IC50 at CDK4/cyclin D1 and on CDK6/cyclin D1 were at most 0.2 µM and 0.2 to 0.5 µM, respectively.

Regarding `CC(=O)c1c(C)c2cnc(Nc3ccc(N4CCN(S(=O)(=O)NC(=O)OCCNC(=O)CN)CC4)cn3)nc2n(C2CCCC2)c1=O` [Compound A20, 2-(2-Aminoacetamido)ethyl ((4-(6-((6-acetyl-8-cyclopentyl-5-methyl-7-oxo-7,8-dihydropyrido[2,3-d]pyrimidin-2-yl)amino)pyridin-3-yl)piperazin-1-yl)sulfonyl)carbamate], the IC50 on CDK4/cyclin D1 and at CDK6/cyclin D1 was at most 0.2 µM throughout.

With `CC(=O)c1c(C)c2cnc(Nc3ccc(N4CCN(S(=O)(=O)NC(=O)OCC(=O)O)CC4)cn3)nc2n(C2CCCC2)c1=O` [Compound A11, 2-((((4-(6-((6-Acetyl-8-cyclopentyl-5-methyl-7-oxo-7,8-dihydropyrido[2,3-d]-pyrimidin-2-yl)amino)pyridin-3-yl)piperazin-1-yl)sulfonyl)carbamoyl)oxy)acetic acid], the figures for the IC50 at CDK4/cyclin D1 and at CDK6/cyclin D1 were 0.2 to 0.5 µM and at most 0.2 µM, respectively.

For `CC(=O)c1c(C)c2cnc(Nc3ccc(N4CCN(S(=O)(=O)NC(=O)OCCNC(=O)[C@@H](N)CC(C)C)CC4)cn3)nc2n(C2CCCC2)c1=O` [Compound A17, (S)-2-(2-Amino-4-methylpentanamido)ethyl ((4-(6-((6-acetyl-8-cyclopentyl-5-methyl-7-oxo-7,8-dihydropyrido[2,3-d]pyrimidin-2-yl)amino)pyridin-3-yl)piperazin-1-yl)-sulfonyl)carbamate], the IC50 at CDK4/cyclin D1 and on CDK6/cyclin D1 was at most 0.2 µM in each case.

Regarding `CC(=O)c1c(C)c2cnc(Nc3ccc(N4CCN(S(=O)(=O)NC(=O)C5CCOCC5)CC4)cn3)nc2n(C2CCCC2)c1=O` [Compound A40, N-((4-(6-((6-Acetyl-8-cyclopentyl-5-methyl-7-oxo-7,8-dihydropyrido[2,3-d]-pyrimidin-2-yl)amino)pyridin-3-yl)piperazin-1-yl)sulfonyl)tetrahydro-2H-pyran-4-carboxamide], the IC50 at CDK4/cyclin D1 and at CDK6/cyclin D1 was at most 0.2 µM throughout.

`CC(=O)c1c(C)c2cnc(Nc3ccc(N4CCN(S(=O)(=O)N(C)C)CC4)cn3)nc2n(C2CCCC2)c1=O` [Compound A50, 4-(6-((6-Acetyl-8-cyclopentyl-5-methyl-7-oxo-7,8-dihydropyrido[2,3-d]-pyrimidin-2-yl)amino)pyridin-3-yl)-N,N-dimethylpiperazine-1-sulfonamide]: the IC50 on CDK4/cyclin D1 and at CDK6/cyclin D1 was 0.2 to 0.5 µM throughout.

Regarding `CC(=O)c1c(C)c2cnc(Nc3ccc(N4CCN(S(=O)(=O)O)CC4)cn3)nc2n(C2CCCC2)c1=O` [Compound 6.1, 4-(6-((6-Acetyl-8-cyclopentyl-5-methyl-7-oxo-7,8-dihydropyrido[2,3-d]-pyrimidin-2-yl)amino)pyridin-3-yl)piperazine-1-sulfonic acid], the IC50 at CDK4/cyclin D1 is at most 0.2 µM; at CDK6/cyclin D1 it was 0.2 to 0.5 µM.

Consider `CC(=O)c1c(C)c2cnc(Nc3ccc(N4CCN(S(=O)(=O)NC(=O)OCCNC(=O)[C@H]5CCCN5)CC4)cn3)nc2n(C2CCCC2)c1=O` [Compound A21, (R)-2-(Pyrrolidine-2-carboxamido)ethyl ((4-(6-((6-acetyl-8-cyclopentyl-5-methyl-7-oxo-7,8-dihydropyrido[2,3-d]pyrimidin-2-yl)amino)pyridin-3-yl)piperazin-1-yl)sulfonyl)-carbamate], for which the IC50 at CDK4/cyclin D1 and at CDK6/cyclin D1 was at most 0.2 µM each time.

Take `CC(=O)c1c(C)c2cnc(Nc3ccc(N4CCN(S(=O)(=O)OC5CCCC5)CC4)cn3)nc2n(C2CCCC2)c1=O` [Compound B4, Cyclopentyl 4-(6-((6-acetyl-8-cyclopentyl-5-methyl-7-oxo-7,8-dihydropyrido[2,3-d]pyrimidin-2-yl)amino)pyridin-3-yl)piperazine-1-sulfonate]: the results for the IC50 on CDK4/cyclin D1 and at CDK6/cyclin D1 were at most 0.2 µM and 0.2 to 0.5 µM, respectively.

`CC(=O)c1c(C)c2cnc(Nc3ccc(N4CCN(S(=O)(=O)n5ccnc5)CC4)cn3)nc2n(C2CCCC2)c1=O` [Compound A58, 2-((5-(4-((1H-Imidazol-1-yl)sulfonyl)piperazin-1-yl)pyridin-2-yl)amino)-6-acetyl-8-cyclopentyl-5-methylpyrido[2,3-d]pyrimidin-7(8H)-one]: in test [1], the EC50 is at most 1 µM.
